Measurements from patent US6342201B1, “Complex compounds for diagnosis of vascular diseases” (Institut for Diagnostikforschung GmbH an der Freien …, priority 1994, dated 2002).
“Also recorded” adds a separate entry of the source.

Assays:
[1] = tested on: arteriosclerotic plaques (aortic arch, a. carotis, abdominal aorta); test: In vivo gamma camera scintigraphy of WHHL-rabbits; parameters: species or system WHHL-rabbit
Procedure: (§1) The order of the dissected tissues for each B1 and B2 from left to right: thoracic aorta, right denuded a. carotis and left untreated a. carotis.
(§2) 2 mCi (1 ml) of the analog to b) labelled […]was applied to a narcotized WHHL-rabbit (Rompun/Ketavet 1:2) via an ear vein. WHHL-rabbits reveal due a missing or defect LDL receptor high LDL levels in blood and therefore show spontaneous arteriosclerotic vascular changes. During the experimental time span of 5 h after application, static photographs with various exposure times and positions were taken with a gamma camera (Elcint SP4 HR). 5 h after application the rabbit was killed and both an autoradiography and a Sudan III dyeing of the aorta were performed.

[2] = tested on: plaque as well as non-plaque regions of the aorta; test: Quantitative autoradiography and Sudan-III-dyeing of the removed aorta of WHHL-rabbits after i.v. application; parameters: species or system WHHL-rabbit; settings: in vivo
Procedure: 74 MBq (2 mCi) of the respective compound according to the invention was applied via an ear vein in a WHHL-rabbit. 5 h p.i. the rabbit was killed and both a quantitative autoradiography and a Sudan-III-dyeing of the removed aorta were performed. The so-determined accumulation of the respective compounds according to the invention in the different tissues is listed in Table 1.
as §2, with “performed. The arteriosclerotic plagues in the region of the aortic arch of the WHHL-rabbits could be depicted with 10 min p.i. in vivo. […] The enrichment factor between the normal and arteriosclerotic wall regions was between 6 and 9, depending on the plaque formation (Sudan III dyeing).” for “performed.”

[3] = tested on: denuded (arteriosclerotic) right a. carotis; test: Scintigram and autoradiogram of a New Zealand rabbit with right a. carotis denuded by Fogarty-catheter; format: in vivo; settings: right a. carotis denuded four weeks earlier, 0.5 h after i.v. application of 74 MBq
From the text: as §1

Row | Substance | Enrichment factor Plaque / Non-plaque [2] | other results
1 | Tc-99m-Complex of Asp-Gly-Gly-Cys-Gly-Cys-Phe-(D-Trp)-Leu-Asp-Ile-Ile-Trp [Example 3 c] | – | enrichment activity in vivo in left lateral scintigram ([1]; WHHL-rabbit versus New Zealand control rabbit, 0.5 h after i.v. application of 74 MBq, aortic arch, left a. carotis, abdominal aorta): observable enrichment activity in vivo; also recorded: enrichment activity is visible in vivo
2 | Tc-99m-Complex of N-(4-hydroxycarboxy-1-oxo-3-thia-but-1-yl)-Cys-(D-Trp)-Leu-Asp-Ile-Ile-Trp [Example 5 c] | 9 | –
3 | Tc-99m-Complex of N-(4-hydroxycarboxy-1-oxo-3-thia-but-1-yl)-Cys-His-Leu-Asp-Ile-Ile-Trp [Example 6 c] | 5 | –
4 | Tc-99m-Complex of N-(4-hydroxycarboxy-1-oxo-3-thia-but-1-yl)-Cys-Phe-(D-Trp)-Leu-Asp-Ile-Ile-Trp [Example 4 c] | 14 | –
5 | ^99mTc-Complex of Asp-Gly-Gly-Cys-Gly-Cys-D-Trp-Leu-Asp-Ile-Ile-Trp [Example 2 c] | – | in vivo detection of the arteriosclerotic right a. carotis in anterior scintigram [3]: could be detected in vivo
6 | ^99mTc-Complex of Asp-Gly-Gly-Cys-Gly-Cys-His-Leu-Asp-Ile-Ile-Trp [Example 1 c] | – | time p.i. at which arteriosclerotic plaques in the region of the aortic arch could be depicted in vivo ([1]; WHHL-rabbit, 2 mCi via ear vein, gamma camera): 10 min
